{"source": "patent US20080213785A1", "about": "“Method of predicting a benefit of antioxidant therapy for prevention or treatment of vasclar disease in hyperglycemic individuals” (priority 2000, published 2008)", "key": {"[1]": {"conditions": "value for 1 mg; cited from earlier work"}, "macrophages": {"test_system": "macrophages", "assay": "Cholesterol efflux from macrophage by serum from treated diabetic mice", "conditions": "for effect on cholesterol efflux activity: Hp 2-2 diabetic mice"}, "[2]": {"test_system": "patients at high risk of cardiovascular events", "assay": "HOPE study: CV outcomes with vitamin E or ramipril by haptoglobin phenotype", "type": "in vivo, human", "conditions": "for benefit of supplementation: unselected DM group", "text": "HOPE study and patient characteristics: The Heart Outcomes Prevention Evaluation (HOPE) study was designed to test the hypotheses that two preventive intervention strategies, namely angiotensin-converting enzyme (ACE) inhibition or vitamin E, would improve morbidity and mortality in patients at high risk of cardiovascular events compared with placebo. Patients were included in the study who were considered to be at high risk of future fatal or non-fatal cardiovascular events, by virtue of their age (>55 years), existing or previous cardiovascular disease, or diabetes. Diabetics had at least one other risk factor, either known vascular disease or other factors such as cigarette smoking, high cholesterol or hypertension. Ramipril or placebo was added to concomitant medication, which included, in a substantial proportion of patients, antihypertensive drugs (excluding ACE-I), lipid-lowering agents or aspirin. The HOPE study design and protocols have been previously described in detail (see, for example, The Heart Outcomes Prevention Evaluation Study Investigators NE J Med, 2000; 342:154-60 and […] Angioten Aldost Sys 2000; 1:18-20). Briefly, the study population consisted over 9,451 patients at high risk of CVD (3,654 DM). […] Patients were followed for a mean of 4.5 years. The primary study outcome was the composite of non-fatal MI, stroke or cardiovascular death. For samples from the HOPE Study, haptoglobin phenotyping was performed from 10 ul of plasma by polyacrylamide gel electrophoresis according to established methods (Hochberg I et al Atherosclerosis 2002; 161:441-446). A signature banding pattern is obtained from individuals who are homozygous for the 1 allele (Hp 1-1), homozygous for the 2 allele (Hp 2-2) or who are heterozygous at the haptoglobin locus (Hp 2-1). We have established 100% concordance between the haptoglobin phenotype as determined from plasma and the haptoglobin genotype as determined from genomic DNA by the polymerase chain reaction (Koch W, et al Clin Chem 2002; 277:13635-40). An unambiguous haptoglobin phenotype was obtained on greater than 99.6% of all samples assayed. Haptoglobin phenotyping was performed with no knowledge of the patients clinical or treatment status. All analyses of the HOPE Study data were carried out using SAS 6.02. Baseline characteristics of patients according to haptoglobin were compared by t tests or .chi^2 tests as appropriate. […] Patient characteristics of HOPE samples undergoing haptoglobin phenotyping: Haptoglobin phenotype was obtained on 3176 patients (1078 diabetics) from the original HOPE cohort for whom plasma was originally archived. These patients represented a randomly selected consecutive series of patients from the entire HOPE cohort."}, "[3]": {"assay": "CVD outcomes and Vitamin C supplementation (data not shown)", "type": "in vivo, human", "conditions": "unselected samples or Diabetic patients"}, "[4]": {"test_system": "patients at high risk of cardiovascular events", "conditions": "HOPE study as published; daily 400 IU for 4.5 years; not stratified by haptoglobin; cited from earlier work"}, "[5]": {"conditions": "serum from diabetic Hp 1-1 mice treated orally 28 days (vitamin E 1 mg/kg/day; GPx mimetic 2 mg/kg/day)"}, "[6]": {"conditions": "serum from diabetic Hp 2-2 mice treated orally 28 days (vitamin E 1 mg/kg/day; GPx mimetic 2 mg/kg/day)"}, "[7]": {"conditions": "DM patients with the other haptoglobin phenotypes (Hp 1-1 and Hp 2-1)"}, "[8]": {"conditions": "all patients, Hp 1-1, supplementation vs placebo"}, "[9]": {"conditions": "all patients, Hp 2-1, supplementation vs placebo"}, "[10]": {"conditions": "all patients, Hp 2-2, supplementation vs placebo"}, "[11]": {"conditions": "entire sample, regardless of haptoglobin type"}, "[12]": {"conditions": "DM patients only, Hp 2-2, listed as vitamin E"}}, "note": "Marks after values point to notes of the source that are not given here."}
{"smiles": "Cc1c(C)c2c(c(C)c1O)CCC(C)(CCCC(C)CCCC(C)CCCC(C)C)O2", "note": "(racemic) [all-rac-.alpha-tocopherol]", "values": [{"measurement": "specific activity", "setting": "[1]", "result": 1.10, "unit": "IU per milligram"}]}
{"smiles": "CC(=O)Oc1c(C)c(C)c2c(c1C)CCC(C)(CCCC(C)CCCC(C)CCCC(C)C)O2", "note": "(racemic) [all-rac-α-tocopherol acetate]", "values": [{"measurement": "specific activity", "setting": "[1]", "result": 1.00, "unit": "IU per milligram"}]}
{"smiles": "CC1(C)CN[Se]c2ccccc21", "note": "[GPx mimetic]", "values": [{"measurement": "effect on cholesterol efflux activity", "setting": "macrophages", "result": "increased"}, {"measurement": "Tritiated cholesterol efflux from macrophages", "setting": "macrophages; [5]", "result": "14.6 +/− 0.4 % per hour"}, {"measurement": "Tritiated cholesterol efflux from macrophages", "setting": "macrophages; [6]", "result": "14.0 +/− 0.5 % per hour"}]}
{"smiles": "CC(=O)Oc1c(C)c(C)c2c(c1C)CC[C@@](C)(CCC[C@H](C)CCC[C@H](C)CCCC(C)C)O2", "note": "[RRR-.alpha-tocopherol acetate]", "values": [{"measurement": "specific activity", "setting": "[1]", "result": 1.36, "unit": "IU per milligram"}]}
{"smiles": "Cc1c(C)c2c(c(C)c1O)CC[C@@](C)(CCC[C@H](C)CCC[C@H](C)CCCC(C)C)O2", "note": "[RRR-alpha-tocopherol]", "values": [{"measurement": "specific activity", "setting": "[1]", "result": 1.49, "unit": "IU per milligram"}]}
{"smiles": "CCOC(=O)[C@H](CCc1ccccc1)N[C@@H](C)C(=O)N1[C@H](C(=O)O)C[C@@H]2CCC[C@@H]21", "note": "[Ramipril, ramipril]", "values": [{"measurement": "Relative Risk Ratio, Primary (non-fatal MI, stroke or cardiovascular death) (95% CI)", "setting": "[2]; DM patients only, Hp 1-1", "result": "0.78(0.35-1.75)"}, {"measurement": "Relative Risk Ratio, Primary (non-fatal MI, stroke or cardiovascular death) (95% CI)", "setting": "[2]; DM patients only, Hp 2-1", "result": 0.97}, {"measurement": "Relative Risk Ratio, Primary (non-fatal MI, stroke or cardiovascular death) (95% CI)", "setting": "[2]; DM patients only, Hp 2-2", "result": 0.57}, {"measurement": "Relative Risk Ratio, Primary (non-fatal MI, stroke or cardiovascular death) (95% CI)", "setting": "[2]; DM patients only, Hp 2-2, listed as ramipril", "result": 0.57}, {"measurement": "benefit for any of the primary CV outcomes", "setting": "[2]; [7]", "result": "no benefit"}, {"measurement": "Relative Risk Ratio, Primary (non-fatal MI, stroke or cardiovascular death) (95% CI)", "setting": "[2]; [8]", "result": "0.74(0.47-1.17)"}, {"measurement": "Relative Risk Ratio, Primary (non-fatal MI, stroke or cardiovascular death) (95% CI)", "setting": "[2]; [9]", "result": "0.81 (0.62-1.07)"}, {"measurement": "Relative Risk Ratio, Primary (non-fatal MI, stroke or cardiovascular death) (95% CI)", "setting": "[2]; [10]", "result": 0.76}, {"measurement": "composite endpoint (non-fatal MI, stroke or cardiovascular death)", "setting": "[2]; diabetic individuals in the HOPE study having a Hp 2-2 phenotype", "result": "statistically significant reduction"}, {"measurement": "benefit for any of the primary CV outcomes", "setting": "[2]; [11]", "result": "no significant benefit"}, {"measurement": "benefit of supplementation", "setting": "[2]", "result": "no significant benefit"}]}
{"smiles": "O=C1O[C@H]([C@@H](O)CO)C(O)=C1O", "note": "[Vitamin C]", "values": [{"measurement": "correlation between CVD outcomes and supplementation", "setting": "[3]", "result": "no correlation"}]}
{"smiles": "CC(=O)Oc1c(C)c(C)c2c(c1C)CC[C@@](C)(CCC[C@H](C)CCC[C@H](C)CCCC(C)C)O2", "note": "[Vitamin E]", "values": [{"measurement": "Relative Risk Ratio, CV death (95% CI)", "setting": "[2]; DM patients only, Hp 1-1", "result": 0.64}, {"measurement": "Relative Risk Ratio, MI (95% CI)", "setting": "[2]; DM patients only, Hp 1-1", "result": 0.83}, {"measurement": "Relative Risk Ratio, Primary (non-fatal MI, stroke or cardiovascular death) (95% CI)", "setting": "[2]; DM patients only, Hp 1-1", "result": 0.84}, {"measurement": "Relative Risk Ratio, Stroke (95% CI)", "setting": "[2]; DM patients only, Hp 1-1", "result": 2.24}, {"measurement": "Relative Risk Ratio, CV death (95% CI)", "setting": "[2]; DM patients only, Hp 2-1", "result": "1.0(0.53-1.93)"}, {"measurement": "Relative Risk Ratio, MI (95% CI)", "setting": "[2]; DM patients only, Hp 2-1", "result": 0.99}, {"measurement": "Relative Risk Ratio, Primary (non-fatal MI, stroke or cardiovascular death) (95% CI)", "setting": "[2]; DM patients only, Hp 2-1", "result": 1.08}, {"measurement": "Relative Risk Ratio, Stroke (95% CI)", "setting": "[2]; DM patients only, Hp 2-1", "result": "0.99(0.45-2.18)"}, {"measurement": "Relative Risk Ratio, CV death (95% CI)", "setting": "[2]; DM patients only, Hp 2-2", "result": "0.45 (0.23-0.90) *"}, {"measurement": "Relative Risk Ratio, MI (95% CI)", "setting": "[2]; DM patients only, Hp 2-2", "result": 0.57}, {"measurement": "Relative Risk Ratio, Primary (non-fatal MI, stroke or cardiovascular death) (95% CI)", "setting": "[2]; DM patients only, Hp 2-2", "result": "0.70(0.45-1.10)"}, {"measurement": "Relative Risk Ratio, Stroke (95% CI)", "setting": "[2]; DM patients only, Hp 2-2", "result": 1.15}, {"measurement": "Relative Risk Ratio, CV death (95% CI)", "setting": "[2]; [12]", "result": 0.45}, {"measurement": "Relative Risk Ratio, MI (95% CI)", "setting": "[2]; [12]", "result": 0.57}, {"measurement": "benefit for any of the primary CV outcomes", "setting": "[2]; [7]", "result": "no significant benefit"}, {"measurement": "Relative Risk Ratio, CV death (95% CI)", "setting": "[2]; all patients, Hp 1-1", "result": 1.10}, {"measurement": "Relative Risk Ratio, MI (95% CI)", "setting": "[2]; all patients, Hp 1-1", "result": 0.79}, {"measurement": "Relative Risk Ratio, Stroke (95% CI)", "setting": "[2]; all patients, Hp 1-1", "result": 1.50}, {"measurement": "Relative Risk Ratio, Primary (non-fatal MI, stroke or cardiovascular death) (95% CI)", "setting": "[2]; [8]", "result": "0.97(0.63-1.50)"}, {"measurement": "Relative Risk Ratio, CV death (95% CI)", "setting": "[2]; all patients, Hp 2-1", "result": "1.07(0.69-1.64)"}, {"measurement": "Relative Risk Ratio, MI (95% CI)", "setting": "[2]; all patients, Hp 2-1", "result": "1.02(0.75-1.38)"}, {"measurement": "Relative Risk Ratio, Stroke (95% CI)", "setting": "[2]; all patients, Hp 2-1", "result": "0.92(0.53-1.60)"}, {"measurement": "Relative Risk Ratio, Primary (non-fatal MI, stroke or cardiovascular death) (95% CI)", "setting": "[2]; [9]", "result": "0.96(0.74-1.25)"}, {"measurement": "Relative Risk Ratio, CV death (95% CI)", "setting": "[2]; all patients, Hp 2-2", "result": 0.75}, {"measurement": "Relative Risk Ratio, MI (95% CI)", "setting": "[2]; all patients, Hp 2-2", "result": "0.94(0.68-1.30)"}, {"measurement": "Relative Risk Ratio, Stroke (95% CI)", "setting": "[2]; all patients, Hp 2-2", "result": 0.85}, {"measurement": "Relative Risk Ratio, Primary (non-fatal MI, stroke or cardiovascular death) (95% CI)", "setting": "[2]; [10]", "result": 0.92}, {"measurement": "benefit for any of the primary CV outcomes", "setting": "[2]; [11]", "result": "no significant benefit"}, {"measurement": "benefit of supplementation", "setting": "[2]", "result": "no significant benefit"}, {"measurement": "effect on cholesterol efflux activity", "setting": "macrophages", "result": "increased"}, {"measurement": "Tritiated cholesterol efflux from macrophages", "setting": "macrophages; [5]", "result": "16.1 +/− 0.5 % per hour"}, {"measurement": "Tritiated cholesterol efflux from macrophages", "setting": "macrophages; [6]", "result": "15.3 +/− 0.7 % per hour"}, {"measurement": "clinical benefit on cardiovascular (CV) outcomes", "setting": "[4]", "result": "failed to demonstrate any clinical benefit"}]}
